# Laboratory results: patent US20130136772A1, “REGULATION OF IMMUNE RESPONSE BY COLOCYNTHIN AND/OR ITS DERIVATIVES” (priority 2010, published 2013)
# What was measured:
# [1] = tested on: peritoneal murine macrophages; assay: Phagocytosis of heat killed Candida albicans by murine macrophages (in vitro); format: cell-based
# Method: The method of Lehrer (1981) [Lehrer, R. I. Ingestion and destruction of Candida albicans. (1981) In: Methods for studying mono-nuclear phagocytes. Eds. Adams, D. O., Edelson, P. J. and Koren, H. (Academic Press, New York) 693-7081 was followed. The percentage and average number of Candida albicans cells (heatkilled) ingested by peritoneal murine macrophages was calculated. AD-B-63B was tested at the doses of 1, 2.5, Sand 10 μg/mL (Table 4).
# IL-4 = assay: Intracellular IL-4 expression in SRBC immunised mice; format: in vivo, Swiss albino mice; conditions: graded doses; significantly inhibited at 2.5, 5 and 10 mg/kg
# Method: (§1) Estimation of intracellular cytokines: The animals were immunized as mentioned above. After 6 days of drug administration, the animals were challenged on day 7. After 48 h of challenge, the blood was collected in the tubes containing EDTA (anti-coagulant) from retro-orbital plexes of animals to determine the effect of test material on the expression of intracellular IL-2 and IFN-γ (Th1) and IL-4 (Th2) cytokines. In this study, PE labeled IL-2 monoclonal antibody was used in one set and PE labeled IFN-γ and FITC labelled IL-4 monoclonal antibody was used in the other set of experimentation (FIG. 7, 8, 9).
# vascular permeability = assay: Acetic acid-induced vascular permeability; format: in vivo, mice; conditions: for DYE CONCENTRATION: Evans blue, acetic acid i.p.
# Method: Acetic acid-induced increased vascular permeability in mouse model is a capillary permeability assay. Reduction in the increased peritoneal vascular permeability indicates the suppression of the vascular response in the process of acute inflammation.
# Mice were injected with […] of Evans blue dye (0.25% w/v in normal saline) intravenously after 30 min of oral administration of the drug. Fifteen minutes later, the mice were injected intraperitoneally (1 ml/100 g of body weight) with freshly prepared 0.6% of acetic acid (v/v) in normal saline. After 30 min of acetic acid injection, the peritoneal cavities were washed with 5 ml of heparinised sterile normal saline and centrifuged (3000×g) for 10 min Absorbance of the supernatant was measured at 610 nm using a spectrophotometer (Table 3) [Whittle B. A. The use of changes in capillary permeability in mice to distinguish between narcotic and non-narcotic analgesics. Brit J Pharmacol 1964; 2: 246-253].
# IFN-γ = assay: Intracellular IFN-γ expression in SRBC immunised mice; format: in vivo, Swiss albino mice; conditions: graded doses; inhibition observed at 5 and 10 mg/kg p.o.
# Method: as §1
# TNF-α = assay: Intracellular TNF-α estimation in LPS activated murine neutrophils by flowcytometry; format: cell-based; conditions: for Expression of intracellular TNF-alpha, Mean ± S.E: LPS 10 ng/ml, 3 h
# Method: Flowcytometric studies were carried out to determine the anti-inflammatory effect of AD-B-63B on TNF-α cytokine expression in LPS activated murine neutrophils. Neutrophils play essential roles in host defence through their ability to clear bacterial infections. Their inappropriate activation contributes to a variety of inflammatory diseases, from the acute respiratory distress syndrome to asthma, chronic obstructive pulmonary disease and rheumatoid arthritis. TNF-α was chosen as the target for anti-inflammatory activity because of the fact that it is a pro-inflammatory cytokine and plays a major role in the pathogenesis of septic shock induced by LPS (Lipopolysaccharide) endotoxin injection [Remick, D. G.; Strieter, R. M.; Eskandari, M. K.; Nguyen, D. T.; Genord, M. A.; Raiford, C. L. Am. J. Path. 1990, 136, 49.]. LPS is an important triggering factor for in vivo systemic inflammatory response [Bone, R. C. Chest 1991, 100, 802]. LPS activates neutrophils via engagement of TLR4 (Toll-like receptor 4),[Sabroe, I.; Read, R. C.; Whyte, M. K. B.; Dockrell, D. H.; Vogel, S. N.; Dower, S. K. J. Immunol. 2003, 171, 1630.] resulting in the induction of a characteristic pro-inflammatory phenotype and prolongation of cell lifespan [Lee, A.; Whyte, M. K. B.; Haslett, C. J. Leukoc. Biol. 1993, 54, 283].
# The anti-inflammatory activity of AD-B-63B was measured by the estimation of intracellular tumor necrosis factor alpha (TNF-α) expression in a gated population of neutrophils [Clara, B., R. C. Arancha, G. M. Andre's, P. Atanasio, A. Julia, and O. Alberto. 2003. A new method for detecting TNF-α-secreting cells using direct immunofluorescence surface membrane stainings. J. Immuno. Methods 264:77-87.]. Murine blood was subjected to centrifugation at 250× g for 20 min. Three layers were formed: an upper layer of platelet-rich plasma, a buffy coat middle layer and a lower layer formed of red blood cells. The middle layer was removed and subjected to Histopaque 1077 (Sigma) gradient separation. The upper layer containing neutrophils was removed and transferred to FACS tubes (Becton Dickinson). Lipopolysaccharide (LPS) derived from Escherichia coli (Sigma) was added at a concentration of 10 ng/ml for the stimulation of the cells. AD-B-63B was added at graded concentrations of 0.5, 1, 2.5, 5, 10 and 20 μg/ml. Samples were incubated for 3 h at 37° C. ( Table 1) Controls consisted of LPS-stimulated cells (LPS control). Further processing was done by the addition of FACS permeabilizing solution (Becton Dickinson), followed by the addition of phycoerythrin (PE)-labeled anti-mouse TNF-α. (Becton Dickinson). The cells were incubated in the dark, and after being washed with sterile PBS, samples were resuspended in PBS (pH 7.4) and acquired directly on the flow cytometer (FACS CANTO; Becton Dickinson). A fluorescence trigger was set on the […] parameter of the gated neutrophil populations (10,000 events). Rolipram at 100 μg/ml was used as standard inhibitor of TNF-α in this study. Fluorescence compensation, data analysis and data presentation were performed using software (Becton Dickinson) (FIG. 1) [Pandey A, Bani S, Kaul S, Sangawan P L; 2010, Selective Th1 upregulation by ethyl acetate fraction of Labisia pumila; 132 (2010) 309-315].
smiles,measurement,setting,value
"CC(=O)OC(C)(C)/C=C/C(=O)[C@](C)(O)[C@H]1[C@H](O)C[C@@]2(C)[C@@H]3CC=C4[C@@H](C=C(O[C@@H]5O[C@H](CO)[C@@H](O)[C@H](O)[C@H]5O)C(=O)C4(C)C)[C@]3(C)C(=O)C[C@]12C [AD-B-63B, 2-O-β-D-glucopyranosyl cucurbitacin E]",% phagocytosis [in vitro study] Mean ± S.E.,[1]; 1 μg/ml,24.00 ± 2.32%
same,percent decrease in phagocytosis,[1]; 1 μg/ml,(10.48%↓)
same,% phagocytosis [in vitro study] Mean ± S.E.,[1]; 5 μg/ml,18.22 ± 2.11%
same,% phagocytosis [in vitro study] Mean ± S.E.,[1]; 10 μg/ml,17.33 ± 1.42%
same,expression of intracellular IL-4,IL-4,decrease
same,percent reduction of dye concentration,vascular permeability; 1 mg/kg p.o.,(10.71%↓)
same,DYE CONCENTRATION,vascular permeability; 1 mg/kg p.o.,0.50 ± 0.02 μg/25 g mouse
same,percent reduction of dye concentration,vascular permeability; 5 mg/kg p.o.,32.14%
same,DYE CONCENTRATION,vascular permeability; 5 mg/kg p.o.,0.38 ± 0.02 μg/25 g mouse
same,percent reduction of dye concentration,"vascular permeability; 5 mg/kg p.o., listed as AD-B-63-B",(32.14%↓)
same,percent reduction of dye concentration,vascular permeability; 10 mg/kg p.o.,35.71%
same,DYE CONCENTRATION,vascular permeability; 10 mg/kg p.o.,0.36 ± 0.02 μg/25 g mouse
same,percent reduction of dye concentration,"vascular permeability; 10 mg/kg p.o., listed as AD-B-63-B",(35.71%↓)
same,expression of IFN-γ,IFN-γ,decrease
same,% TNF-alpha inhibition against LPS control,TNF-α; 0.5 μg/ml,13.01↓ %
same,"Expression of intracellular TNF-alpha, Mean ± S.E",TNF-α; 0.5 μg/ml,2.34 ± 0.07
same,% TNF-alpha inhibition against LPS control,TNF-α; 1.0 μg/ml,24.16↓ %
same,"Expression of intracellular TNF-alpha, Mean ± S.E",TNF-α; 1.0 μg/ml,2.04 ± 0.06
same,% TNF-alpha inhibition against LPS control,TNF-α; 5.0 μg/ml,50.55%
same,"Expression of intracellular TNF-alpha, Mean ± S.E",TNF-α; 5.0 μg/ml,1.33 ± 0.06
same,% TNF-alpha inhibition against LPS control,TNF-α; 10.0 μg/ml,60.59%
same,"Expression of intracellular TNF-alpha, Mean ± S.E",TNF-α; 10.0 μg/ml,1.06 ± 0.03
same,"Expression of intracellular TNF-alpha, Mean ± S.E",TNF-α; […],1.84 ± 0.03
